Assay results from paper PMC10374545, “A small molecule inhibitor of PTP1B and PTPN2 enhances T cell anti-tumor immunity” (Nature Communications, 2023).
“And” between values parts separate entries of the source, which are not always exact repeats. Identical values can stand only once.

Key:
[1] = system: STAT-5 Y694 phosphorylation in NK cells; experiment: IL-15-induced p-STAT-5 in NK cells; format: cell-based, mouse; conditions: 0.1 or 1 (µM in figure, µg/ml in legend)
Method: proliferation in vitro. a-b) NK cells from C57BL/6 male mice (n=3 per group) were expanded […]
µg/ml) or vehicle (1% v/v DMSO) in the absence of IL-15. a) NK cells were re-stimulated for 15 min with the indicated amounts of IL-15 and Y694 phosphorylated STAT-5 (p-STAT-5) mean fluorescence intensities (MFIs) determined by flow cytometry. b) Alternatively, NK cells were stained with carboxyfluorescein succinimidyl ester (CFSE, Invitrogen) and then re-stimulated with the indicated amounts of IL-15 for 96 h and NK cell proliferation (CFSE dilution) monitored by flow cytometry. c-d) NK cells from C57BL/6 male mice (n=3 per group) were expanded ex vivo in the presence of IL-15 and then pre-treated with CMP-182 (0.1 or 1 µg/ml) or vehicle in the absence of IL-15. NK cells were re-stimulated with either IL-12 (10 ng/ml) or IL-18 (100 ng/ml) or with α-NK1.1 or α-Ly49H for 4 h. NK cells were maintained in 10 ng/ml IL-15 throughout the 4 h incubation time. Percentages of c) IFN-γ+ and d) CD107A+ NK cells were determined by flow cytometry. In (a-d) results shown are means ± SEM and are representative of at least two independent experiments.

AT3-OVA mammary tumors = experiment: Tumor-infiltrating lymphocytes in AT3-OVA tumors (flow cytometry); format: in vivo, mouse; parameters: GRZMB, single mice / GRZMB, individual mice: unit not given here
Method: (§1) Single-cell suspensions from spleens and lymph nodes were obtained as described previously. For the detection of intracellular cytokines and granzyme B, T cells were fixed and permeabilized with the BD Cytofix/Cytoperm kit according to the manufacturer’s instructions. Briefly, T cells were first surface stained with fluorophore-conjugated antibodies and then fixed followed by permeabilization on ice for 20 min. Fixed and permeabilized cells were stained for IFN-γ, TNF, and granzyme B for 45 min at room temperature. For the detection of intracellular FoxP3 the Foxp3/Transcription Factor Staining Buffer Set (eBioscience) was used according to the manufacturer’s instructions. Briefly, cells were fixed and permeabilized for 1 h on ice followed by intracellular staining at room temperature for 45 min. For the detection of serum cytokines, the BD CBA Mouse Inflammation Kit™ was used according to the manufacturers’ instructions.
Cells (1 × 10^6/10 µl) were stained with the specified antibodies on ice for 30 min in D-PBS supplemented with 2% FBS in the dark and analyzed using a Fortessa or Symphony A3 (BD Biosciences). Data was acquired using BD FACS DIVA Software v8.0.1 and analyzed using FlowJo10 (Tree Star Inc.) software. Lymphocytes were gated for eYFP^+ cells to discriminate between PTPN2 sufficient and PTPN2 negative cells after poly(I:C)-induced PTPN2-deletion in Mx1-Cre;Ptpn2^fl/fl mice. For cell quantification, known numbers of Flow-Count Fluorospheres (Beckman Coulter) were added to samples before analysis. Dead cells were excluded with propidium iodide (1 μg/ml; Sigma-Aldrich). Paraformaldehyde fixed dead cells were excluded with the LIVE/DEAD™ Fixable Near-IR Dead Cell Stain Kit (Thermo Fisher Scientific).
Tumor-bearing mice were sacrificed and tumors were excised and digested at 37 °C for 30 min using a cocktail of 1 mg/ml collagenase type IV (Worthington Biochemicals) and 0.02 mg/ml DNase I (Sigma-Aldrich) in DMEM supplemented with 2% (v/v) FBS. Cells were passed through a 70 μm cell strainer (BD Biosciences) twice and processed for flow cytometry. For assessing T cell activation, cells were surface stained with fluorophore-conjugated antibodies to CD62L, CD44, PD-1, and TIM-3. For the assessment of NK cells, B cells, myeloid-derived suppressor cells (MDSCs), dendritic cells (DCs), and tumor-associated macrophages, cells were surface stained with fluorophore-conjugated antibodies to NK1.1, TCRβ, CD19, CD11b, CD11c, F4/80, Ly6C and Ly6G. For the detection of intracellular cytokines TNF and IFNγ, T cells were stimulated with PMA (20 ng/ml; Sigma-Aldrich) and ionomycin (1 μg/ml; Sigma-Aldrich) in the presence of GolgiPlug™ and GolgiStop™ (BD Biosciences) for 4 h at 37 °C in complete T cell medium. For the intracellular detection of granzyme B, cells were processed untreated without the addition of BD GolgiPlug™ and BD GolgiStop™.

OT-I CD8+ T cells = experiment: Intracellular IFNγ, TNF and Granzyme B in activated OT-I T cells; format: cell-based, mouse; parameters: Grzmb, single replicates / IFN TNF, single replicates / IFN TNF, column mean / Grzmb, difference between medians: Actual / Grzmb, difference between medians: Hodges-Lehmann / IFN TNF, group mean (Mean 2): unit not given here; conditions: for IFN TNF, group mean (Mean 2): N 6
Method: as §1
For the detection of intracellular IFNγ, TNF and Granzyme B, single-cell suspensions were obtained from lymph nodes of wild type (OT-I;Ptpn2^fl/fl) or PTPN2-deficient (OT-I;Lck-Cre;Ptpn2^fl/fl) mice and stimulated with 1 nM N4 peptide for 16 h and rested in complete T cell media supplemented with IL-2 (5 ng/ml) and IL-7 (0.2 ng/ml) for 2 days. […] Cells were then stained with fluorophore-conjugated antibodies to cell surface CD8 and intracellular IFNγ, TNF, and Granzyme B and analyzed by flow cytometry.

[2] = C57BL/6, CMP-182 10 mg, n=8, Figure 5C
[3] = C57BL/6, CMP-182 10 mg, n=8, Figure 5D, in % (unit assumed)
[4] = C57BL/6, CMP-182 10 mg, n=8, Figure 5E
[5] = tumor-infiltrating CD8+ T cells, 10 mg/kg i.v., Fig. 3D raw data, listed as CMP-182, 10 mg/kg
[6] = N4 1nM, 1 μM, Fig. 2B raw data, listed as CMP-182

## CC(C)(O)CCOc1ccc2cc(O)c(N3CC(=O)NS3(=O)=O)c(F)c2c1 [Compound 182, 5-(1-Fluoro-3-hydroxy-7-(3-hydroxy-3-methylbutoxy)naphthalen-2-yl)−1,2,5-thiadiazolidin-3-one 1,1-dioxide]
[1]
  IL-15-induced p-STAT-5 in NK cells: did not enhance
AT3-OVA mammary tumors; 10 mg/kg i.v.
  TILs in AT3-OVA tumors: increased TILs
  accumulation of NK cells and B cells in AT3-OVA tumors: increased the accumulation
  accumulation of Tregs and MDSCs in AT3-OVA tumors: promoted the accumulation
AT3-OVA mammary tumors; C57BL/6, CMP-182 10 mg, n=7, Figure 5E
  MDSCs, individual mice: 48747.9 and 7096.22 and 17089.1 and 45092.3 and 47664.4 and 17646.1 and 31607.3
AT3-OVA mammary tumors; [2]
  CD4 EM, individual mice: 134557 and 47922.8 and 133424 and 44428.9 and 44587.5 and 55436.2 and 44822.8 and 60817.2
  CD8 EM, individual mice: 845401 and 186403 and 749030 and 169324 and 169003 and 192622 and 192657 and 178436
AT3-OVA mammary tumors; C57BL/6, CMP-182 10 mg, n=8, Figure 5D
  GRZMB, individual mice: 25.6 and 28.7 and 25.8 and 29.2 and 51.4 and 33.2 and 36 and 28.4
AT3-OVA mammary tumors; [3]
  IFNg TNF, individual mice: 24.8 and 30.6 and 32 and 36.2 and 36.6 and 36.4 and 24 and 30.7
  PD-1 TIM-3, individual mice: 77.9 and 62.8 and 78.4 and 65.6 and 64.1 and 65.4 and 72.7 and 54.7
AT3-OVA mammary tumors; [4]
  B cells, individual mice: 170944 and 179918 and 255526 and 193357 and 175857 and 145133 and 135399 and 202633
  NK cells, individual mice: 58558.9 and 29752.3 and 40599.7 and 35764.2 and 59533.6 and 52754.4 and 30362.6 and 33110.9
  Tregs, individual mice: 74115.4 and 20349.3 and 83872.7 and 21555.9 and 26849.8 and 29117.6 and 19831.6 and 35834.4
AT3-OVA mammary tumors; Figure 3B, column B, n=8
  CD4 CM TILS (median): 11958, n=8
  CD4 EM TILS (median): 57270, n=8
  CD8 CM TILS (median): 16228, n=8
  CD8 EM TILS (median): 275442, n=8
AT3-OVA mammary tumors; Figure 3C, column B, n=8
  B cells TILS (median): 364105, n=8
  MDSCs TILS (median): 8604, n=8
  Nk cells TILS (median): 52917, n=8
  Tregs TILS (median): 35282, n=8
AT3-OVA mammary tumors; Figure 3D, column B, n=8
  GRZB TILS (median): 35.20, n=8
  IFNg TNF TILS (median): 31.60, n=8
  PD-1 Lag-3 TILS (median): 35.10, n=8
  PD-1 TIM-3 TILS (median): 50.75, n=8
AT3-OVA mammary tumors; [5]
  GRZMB, single mice: 38.7 and 39 and 35.1 and 25.9 and 27.7 and 35.3 and 28.6 and 36.2
  PD-1 LAG-3, single mice: 39.6 and 36.2 and 34 and 27 and 25.2 and 33.5 and 41.6
AT3-OVA mammary tumors; tumor-infiltrating CD8+ T cells, 10 mg/kg i.v., Fig. 3D raw data, listed as CMP-182, 10 mg/kg, in % (unit assumed)
  PD-1 TIM-3, single mice: 64.6 and 50.1 and 56.3 and 51.4 and 49.7 and 42.6 and 48.5 and 63
OT-I CD8+ T cells; CMP-182 vs. DMSO, N4, Fig. 2B
  Grzmb, difference between medians: Actual: 672.5
  Grzmb, difference between medians: Hodges-Lehmann: 741.5
OT-I CD8+ T cells; [6]
  Grzmb, single replicates: 3755 and 3056 and 3282 and 3899 and 3113 and 2884
  IFN TNF, single replicates: 32.6 and 31.1 and 31 and 36.2 and 30.7 and 32.8
OT-I CD8+ T cells; N4 1nM, Fig. 2B
  IFN TNF, group mean (Mean 2): 32.4
OT-I CD8+ T cells; N4, n=6, Fig. 2B
  Grzmb, median of column B: 3198, n=6
OT-I CD8+ T cells; OT-I CD8+ T cells
  expression of Granzyme B, IFNγ and TNF: increased expression
OT-I CD8+ T cells; Vehicle (no N4), 1 μM, Fig. 2B raw data, listed as CMP-182
  IFN TNF, single replicates: 0.038 and 0.03 and 0.037 and 0.066 and 0.023 (2×)
OT-I CD8+ T cells; Vehicle (no N4), Fig. 2B
  IFN TNF, group mean (Mean 2): 0.03617
OT-I CD8+ T cells; mean over Vehicle and N4 1nM rows, two-way ANOVA, Fig. 2B
  IFN TNF, column mean: 16.22
